Test results: PubChem BioAssay (NCI)
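Where inhibition never reached the appropriate level, the endpoint shown equals the highest concentration tested. Otherwise, values were interpolated linearly from a five-concentration, 48-hour dose response in 96-well plates. The concentration for 50% growth inhibition is given as GI50. The concentration for full growth arrest is given as TGI.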

Assays:
Assay in all cases: DTP human tumour cell line panel, 48 h
DU-145 prostate = test system: DU-145 prostate
MALME-3M melanoma = test system: MALME-3M melanoma
MDA-MB-435 = test system: MDA-MB-435
OVCAR-4 ovarian = test system: OVCAR-4 ovarian
OVCAR-8 ovarian = test system: OVCAR-8 ovarian
SK-MEL-28 melanoma = test system: SK-MEL-28 melanoma
SK-OV-3 ovarian = test system: SK-OV-3 ovarian
SN12C renal = test system: SN12C renal
UACC-62 melanoma = test system: UACC-62 melanoma
SR leukemia = test system: SR leukemia

Compound	GI50 (DU-145 prostate) [µM]	TGI (DU-145 prostate) [µM]	GI50 (MALME-3M melanoma) [µM]	TGI (MALME-3M melanoma) [µM]	GI50 (MDA-MB-435) [µM]	TGI (MDA-MB-435) [µM]	GI50 (OVCAR-4 ovarian) [µM]	TGI (OVCAR-4 ovarian) [µM]	GI50 (OVCAR-8 ovarian) [µM]	TGI (OVCAR-8 ovarian) [µM]	GI50 (SK-MEL-28 melanoma) [µM]	TGI (SK-MEL-28 melanoma) [µM]	GI50 (SK-OV-3 ovarian) [µM]	TGI (SK-OV-3 ovarian) [µM]	GI50 (SN12C renal) [µM]	TGI (SN12C renal) [µM]	GI50 (UACC-62 melanoma) [µM]	TGI (UACC-62 melanoma) [µM]	TGI (SR leukemia) [µM]	GI50 (SR leukemia) [µM]
COc1cc2c3c(n(CCCN4CCN(C)CC4)c(=O)c2cc1OC)-c1cc2c(cc1C3=O)OCO2	10.6	27.5	24.8	42.3	> 100	> 100	4.17	18.6	18.1	46.5	16.5	43.2	12.3	34	11.4	24.1	15.1	34.2	–	–
COc1ccc(NC(=O)C(=O)NNC(=O)c2sc(NNC(C)=O)nc2C)c([N+](=O)[O-])c1	–	–	–	> 100	–	–	–	> 100	–	> 100	–	> 100	–	> 100	–	> 100	–	> 100	> 100	–
O=C(O)c1cc2ccccc2c(N=Nc2c([N+](=O)[O-])cc([N+](=O)[O-])cc2S(=O)(=O)O)c1O	–	–	–	> 100	–	> 100	–	> 100	–	> 100	–	> 100	–	> 100	–	> 100	–	> 100	–	–
COC(=O)C1=C(C(=O)OC)C23C=CC=CC24C(C(=O)OC)=C(C(=O)OC)C4C1C3 (stereo not given)	–	–	–	> 100	–	–	–	> 100	–	> 100	–	> 100	–	–	–	> 100	–	> 100	–	–
N#C/C(=C\c1ccc(Br)cc1)n1nnc2cccc(F)c21	1.51	2.85	–	–	0.295	0.913	1.65	3.49	2.59	13.6	1.87	3.97	–	–	1.55	3.14	1.35	3.46	–	–
O=C1c2ccccc2S(=O)(=O)N1CSC(=S)N1CCCC1	> 100	> 100	> 100	> 100	99.7	> 100	> 51.7	> 100	> 100	> 100	> 100	> 100	> 100	> 100	> 100	> 100	> 75.7	> 100	–	–
O=C(O)CCC1COc2ccccc2O1 (stereo not given)	–	> 10	–	> 10	–	> 10	–	> 10	–	> 10	–	> 10	–	> 10	–	> 10	–	> 10	–	–
Cc1ccc(S(=O)(=O)N2CCC3(C(/C=C/c4ccccc4)=Nc4ccccc43)C2c2ccccc2)cc1 (stereo not given)	–	–	–	> 100	–	–	–	> 100	–	> 100	–	> 100	–	> 100	–	> 100	–	> 100	> 100	–
N#C/C(=C/c1cccnc1)C(=O)c1ccccc1	–	–	–	> 100	–	–	–	> 100	–	> 100	–	> 100	–	> 100	–	> 100	–	> 100	> 100	–
O=C1C(Cl)=C(Nc2ccc3cn[nH]c3c2)C(=O)c2ccccc21	1.17	2.39	0.666	1.95	1.51	2.83	1.31	2.58	1.52	3.01	1.65	3.01	12	24.3	1.49	3.11	1.5	2.93	–	–
CCCCCCCCCCCCCC/C(C(=O)OC)=C(/O)C(=O)OCC	–	–	–	> 100	–	–	–	> 100	–	> 100	–	50.8	–	> 100	–	> 100	–	65.1	–	–
CCOP(=O)(CC(=O)C1=C(O)C(CCCNC(=O)OC(C)(C)C)N(Cc2ccc(OC)c(OC)c2)C1=O)OCC (stereo not given)	–	–	–	> 100	–	–	–	> 100	–	> 100	–	> 100	–	–	–	> 100	–	> 100	> 100	–
Cc1cc(S(=O)(=O)Nc2nc3ccsc3c(=O)n2Cc2ccco2)c(S)cc1Cl	> 100	> 100	> 100	> 100	> 100	> 100	> 100	> 100	> 100	> 100	> 100	> 100	–	–	> 100	> 100	53.1	> 100	29.7	9.95
CC1=C(C(=O)Nc2ccccc2C)C(c2ccc([N+](=O)[O-])cc2)C(C(=O)Nc2ccccc2C)=C(C)N1	–	–	–	> 100	–	–	–	> 100	–	> 100	–	> 100	–	> 100	–	> 100	–	> 100	–	–
CC12O[C@H](c3ccccc3)[C@H](c3ccccc3)N1C(=O)C1(C(=O)OCc3ccccc3)CC12 (stereo not given in full)	–	–	–	> 100	–	–	–	> 100	–	> 100	–	–	–	> 100	–	> 100	–	> 100	–	–
Cc1c(O)c(=O)ccn1C1OC(CO)C(O)C1O (stereo not given)	–	–	–	> 100	–	–	–	> 100	–	> 100	–	> 100	–	> 100	–	> 100	–	> 100	> 100	–
O=c1cccc(C#Cc2ccccc2)o1	7.74	> 68.6	5.09	16.5	6.89	24.9	18.4	44.5	> 22.8	> 100	15	40.2	16.2	> 44.8	14.5	> 53.2	6.32	19.7	–	–
COc1ccc2nc(NCCCNCCO)c3sc4ccc(F)cc4c(=O)c3c2c1	1.6	3.04	1.69	3.23	1.66	3.1	1.76	3.43	–	–	1.78	3.21	–	–	1.56	3.03	1.76	3.29	–	–
N#Cc1c[nH]n2ccnc12	–	> 100	–	–	–	–	–	> 100	–	> 100	–	> 100	–	> 100	–	> 100	–	> 100	> 100	–
N/N=C1\c2ccccc2C2/C(=N\N)c3ccccc3C12 (stereo not given)	–	–	–	> 100	–	–	–	> 100	–	> 100	–	> 100	–	> 100	–	> 100	–	> 100	–	–
